From patent US20240246918A1, “COMPOUNDS AND COMPOSITIONS AS EIF4E INHIBITORS AND THE USES THEREOF” (Ribometrix, Inc., priority 2022, published 2024)
Read-outs that look alike come from different tables or passages of the source.

Assays:
[1] = tested on: cap-dependent translation in Flp-In-293 reporter cells; experiment: Cellular cap-dependent translation inhibition assay (dual luciferase assay, DLA; Fluc/Rluc ratio, 24 hours); format: cell-based; conditions: dual luciferase assay, Flp-In-293 reporter cells, 24 hours, Fluc/Rluc ratio, read-out: DLA 205 IC50
[2] = tested on: COLO 205 colorectal tumor cells; experiment: Tumor cell viability inhibition assay (CellTiter-Glo 2.0, 72 hours); format: cell-based; conditions: COLO 205 cell viability
Outline: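 IC50 derived by 4-parameter fitting after normalizing luminescence to DMSO and max-inhibition wells. Compounds tested as 11 concentrations in 4-fold steps on COLO 205 cells seeded at 1500 per well in RPMI-1640/10% FBS; ATP content measured with CellTiter-Glo 2.0 after 72 h.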

human eIF4E protein = target: T1, human eIF4E protein (Homo sapiens, UniProt P06730); experiment: Biochemical competitive binding assay (TR-FRET competition, EDA-m7GDP-ATTO-647N probe); conditions: read-out: hEIF4E TR-FRET IC50
T1 construct: purchased Novus NBP-45314
T1 sequence (P06730 whole entry): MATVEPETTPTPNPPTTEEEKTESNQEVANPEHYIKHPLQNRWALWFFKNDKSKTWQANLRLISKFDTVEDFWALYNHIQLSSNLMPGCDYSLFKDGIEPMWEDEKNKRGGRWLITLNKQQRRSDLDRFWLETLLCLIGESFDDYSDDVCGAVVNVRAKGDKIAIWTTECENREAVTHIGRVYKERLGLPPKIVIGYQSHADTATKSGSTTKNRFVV
Outline: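 IC50 values come from 4-parameter fits of the normalized 665/620 nm TR-FRET ratio. Compound was first incubated 15 min with 4 nM recombinant His-eIF4E bound to 2.5 nM Eu-anti-His antibody, then 15 min with 5 nM m7GDP-ATTO-647N tracer, in pH 7.5 HEPES buffer with 100 mM KCl, Tween-20 and BSA.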

Structure (SMILES)	IC50 ([2]; Homo sapiens, COLO 205, 72 h) [µM]	IC50 (human eIF4E protein) [µM]	IC50 [2] [µM]	IC50 ([1]; Homo sapiens, Flp-In-293, 24 h) [µM]	IC50 [1] [µM]
Cc1cc(-c2cc(Cl)ccc2OCCn2c(C)nc3c(c2=O)CC(N(C)C2CC2)CC3)c2scc(C(=O)NS(=O)(=O)c3ccccn3)c2n1 (single isomer, unassigned) [Compound 287]		< 0.1	5 to 20		1 to 5
Cc1cc(-c2cc(Cl)ccc2OCCn2c(C)nc3c(c2=O)CC(N(C)CC2CCNCC2)CC3)c2scc(C(=O)NS(C)(=O)=O)c2n1 (single isomer, unassigned) [Compound 289]	5 to 20	< 0.1		1 to 5	
Cc1cc(-c2cc(Cl)ccc2OCCn2c(C)nc3c(c2=O)CC(N(C2CC2)C2CC2)CC3)c2scc(C(=O)NS(C)(=O)=O)c2n1 (single isomer, unassigned) [Compound 291]	< 5	< 0.1		< 1	
Cc1cc(-c2cc(Cl)ccc2OCCn2c(C)nc3c(c2=O)CC(N(C2CC2)C2CC2)CC3)c2scc(C(=O)NS(C)(=O)=O)c2n1 (single isomer, unassigned) [Compound 292]		< 0.1	5 to 20		1 to 5
Cc1nc2c(c(=O)n1CC#Cc1ccc(Cl)cc1-c1ccnc3c(C(=O)O)csc13)C[C@@H](N1CC[C@H](F)C1)CC2 (single isomer, unassigned) [Compound 293]	< 5	< 0.1		< 1	
Cc1nc2c(c(=O)n1CC#Cc1ccc(Cl)cc1-c1ccnc3c(C(=O)O)csc13)C[C@H](N1CC[C@H](F)C1)CC2 (single isomer, unassigned) [Compound 294]	< 5	< 0.1		< 1	
Cc1nc2c(c(=O)n1CC#Cc1ccc(Cl)cc1-c1ccnc3c(C(=O)NS(C)(=O)=O)csc13)CC(N(C)Cc1ccncc1)CC2 (single isomer, unassigned) [Compound 295]	< 5	< 0.1		< 1	
Cc1nc2c(c(=O)n1CC#Cc1ccc(Cl)cc1-c1ccnc3c(C(=O)O)csc13)CC(N(C)C)CC2 (single isomer, unassigned) [Compound 296]	> 20	0.5 to 5		> 5	
Cc1nc2c(c(=O)n1CC#Cc1ccc(Cl)cc1-c1ccnc3c(C(=O)O)csc13)CC(N1CCCCC1)CC2 (single isomer, unassigned) [Compound 298]	< 5	< 0.1		< 1	
Cc1cc(-c2cc(Cl)ccc2OCCn2c(C)nc3c(c2=O)CC(N(C)C2CCCC2(F)F)CC3)c2scc(C(=O)O)c2n1 (single isomer, unassigned) [Compound 301]		< 0.1	5 to 20		< 1
Cc1cc(-c2cc(Cl)ccc2OCCn2c(C)nc3c(c2=O)CC(N(C)C2CC2)CC3)c2scc(C(=O)NS(C)(=O)=O)c2n1 (single isomer, unassigned) [Compound 302]	< 5	< 0.1		< 1	
Cc1cc(-c2cc(Cl)ccc2OCCn2c(C)nc3c(c2=O)CC(N(C)C2CC2)CC3)c2scc(C(=O)NS(C)(=O)=O)c2n1 (single isomer, unassigned) [Compound 303]		< 0.1	< 5		< 1
Cc1cc(-c2cc(Cl)ccc2OCCn2c(C)nc3c(c2=O)CC(N(C)CC2(C)COC2)CC3)c2scc(C(=O)NS(C)(=O)=O)c2n1 (single isomer, unassigned) [Compound 304]	5 to 20	< 0.1		< 1	
Cc1cc(-c2cc(Cl)ccc2OCCn2c(C)nc3c(c2=O)CC(N(C)CC2(C)COC2)CC3)c2scc(C(=O)NS(C)(=O)=O)c2n1 (single isomer, unassigned) [Compound 305]		< 0.1	< 5		< 1
Cc1cc(-c2cc(Cl)ccc2OCCn2c(C)nc3c(c2=O)CC(N(C)C2CC2)CC3)c2sccc2n1 (single isomer, unassigned) [Compound 306]	5 to 20	0.5 to 5			> 5
Cc1cc(-c2cc(Cl)ccc2OCCn2c(C)nc3c(c2=O)CC(N(C)C2CC2)CC3)c2sccc2n1 (single isomer, unassigned) [Compound 307]		0.1 to 0.5	5 to 20		1 to 5
Cc1cc(-c2cc(Cl)ccc2OCCn2c(C)nc3c(c2=O)CC(N(CC(F)(F)F)C2CC2)CC3)c2scc(C(=O)NS(C)(=O)=O)c2n1 (single isomer, unassigned) [Compound 309]		0.1 to 0.5	5 to 20		1 to 5
Cc1cc(-c2cc(Cl)ccc2OCCn2c(C)nc3c(c2=O)C[C@H](N2CC[C@H](F)C2)CC3)c2scc(C(=O)O)c2n1 (single isomer, unassigned) [Compound 311]	< 5	< 0.1		< 1	
Cc1cc(-c2cc(Cl)ccc2OCCn2c(C)nc3c(c2=O)C[C@@H](N2CC[C@@H](F)C2)CC3)c2scc(C(=O)NS(C)(=O)=O)c2n1 (single isomer, unassigned) [Compound 312]	< 5	< 0.1		< 1	
Cc1nc2c(c(=O)n1CC#Cc1ccc(Cl)cc1-c1ccnc3c(C(=O)NS(C)(=O)=O)csc13)CC(N(C)Cc1ccncc1)CC2 (single isomer, unassigned) [Compound 314]		< 0.1	5 to 20		1 to 5
Cc1cc(-c2cc(Cl)ccc2OCCn2c(C)nc3c(c2=O)CC(N(CC(F)(F)F)C2CC2)CC3)c2scc(C(=O)O)c2n1 (single isomer, unassigned) [Compound 319]	5 to 20	0.1 to 0.5		1 to 5	
Cc1cc(-c2cc(Cl)ccc2OCCn2c(C)nc3c(c2=O)CC(N(CC(F)(F)F)C2CC2)CC3)c2scc(C(=O)O)c2n1 (single isomer, unassigned) [Compound 320]		0.1 to 0.5	5 to 20		1 to 5
Cc1cc(-c2cc(Cl)ccc2OCCn2c(C)nc3c(c2=O)C[C@H](N2CCC[C@@H](F)C2)CC3)c2scc(C(=O)O)c2n1 (single isomer, unassigned) [Compound 323]	< 5	< 0.1		< 1	
Cc1cc(-c2cc(Cl)ccc2OCCn2c(C)nc3c(c2=O)C[C@@H](N2CCC[C@@H](F)C2)CC3)c2scc(C(=O)O)c2n1 (single isomer, unassigned) [Compound 324]	< 5	< 0.1		< 1	

Second part, led by results:

IC50 ([2]; Homo sapiens, COLO 205, 72 h) [µM]	IC50 (human eIF4E protein) [µM]	IC50 [2] [µM]	Structure (SMILES)	IC50 ([1]; Homo sapiens, Flp-In-293, 24 h) [µM]	IC50 [1] [µM]
< 5	< 0.1		Cc1cc(-c2cc(Cl)ccc2OCCn2c(C)nc3c(c2=O)CC(N(C)C2CC2)CC3)c2scc(C(=O)NS(=O)(=O)c3ccccn3)c2n1 (single isomer, unassigned) [Compound 286]	< 1	
	0.5 to 5	> 20	Cc1nc2c(c(=O)n1CC#Cc1ccc(Cl)cc1-c1ccnc3c(C(=O)O)csc13)CC(N(C)C)CC2 (single isomer, unassigned) [Compound 297]		> 5
	< 0.1	5 to 20	Cc1nc2c(c(=O)n1CC#Cc1ccc(Cl)cc1-c1ccnc3c(C(=O)O)csc13)CC(N1CCCCC1)CC2 (single isomer, unassigned) [Compound 299]		1 to 5
< 5	< 0.1		Cc1cc(-c2cc(Cl)ccc2OCCn2c(C)nc3c(c2=O)CC(N(C)C2CCCC2(F)F)CC3)c2scc(C(=O)O)c2n1 (single isomer, unassigned) [Compound 300]	< 1	
5 to 20	0.1 to 0.5		Cc1cc(-c2cc(Cl)ccc2OCCn2c(C)nc3c(c2=O)CC(N(CC(F)(F)F)C2CC2)CC3)c2scc(C(=O)NS(C)(=O)=O)c2n1 (single isomer, unassigned) [Compound 308]	1 to 5	
< 5	< 0.1		Cc1cc(-c2cc(Cl)ccc2OCCn2c(C)nc3c(c2=O)C[C@@H](N2CC[C@H](F)C2)CC3)c2scc(C(=O)O)c2n1 (single isomer, unassigned) [Compound 310]	< 1	
< 5	< 0.1		Cc1cc(-c2cc(Cl)ccc2OCCn2c(C)nc3c(c2=O)C[C@H](N2CC[C@@H](F)C2)CC3)c2scc(C(=O)NS(C)(=O)=O)c2n1 (single isomer, unassigned) [Compound 313]	< 1	
< 5	< 0.1		Cc1nc2c(c(=O)n1CC#Cc1ccc(Cl)cc1-c1ccnc3c(C(=O)NS(C)(=O)=O)csc13)CC(N1CCCCC1)CC2 (single isomer, unassigned) [Compound 315]	< 1	
	< 0.1	5 to 20	Cc1nc2c(c(=O)n1CC#Cc1ccc(Cl)cc1-c1ccnc3c(C(=O)NS(C)(=O)=O)csc13)CC(N1CCCCC1)CC2 (single isomer, unassigned) [Compound 316]		1 to 5
< 5	< 0.1		Cc1cc(-c2cc(Cl)ccc2OCCn2c(C)nc3c(c2=O)CC(N2CC(C(F)(F)F)C2)CC3)c2scc(C(=O)NS(C)(=O)=O)c2n1 (single isomer, unassigned) [Compound 321]	< 1	
	< 0.1	< 5	Cc1cc(-c2cc(Cl)ccc2OCCn2c(C)nc3c(c2=O)CC(N2CC(C(F)(F)F)C2)CC3)c2scc(C(=O)NS(C)(=O)=O)c2n1 (single isomer, unassigned) [Compound 322]		< 1
